Measured values from US20090012045A1, “Methods of Treating Cell Proliferative Disorders” (RIGEL PHARMACEUTICALS, INC., priority 2007, published 2009).

Assays:
NCI-H23 = NCI-H23 (Non-Small Cell Lung Cancer)
SF-295 = SF-295 (CNS Cancer)
M14 = M14 (Melanoma)
SK-OV-3 = SK-OV-3 (Ovarian Cancer)
HL-60(TB) = HL-60(TB) (Leukemia)
A549/ATCC = A549/ATCC (Non-Small Cell Lung Cancer)
SR = SR (Leukemia)
TK-10 = TK-10 (Renal Cancer)
MCF7 = MCF7 (Breast Cancer)
T-47D = T-47D (Breast Cancer)
MOLT-4 = MOLT-4 (Leukemia)
UO-31 = UO-31 (Renal Cancer)
SF-268 = SF-268 (CNS Cancer)
HS 578T = HS 578T (Breast Cancer)
KM12 = KM12 (Colon Cancer)
NCI-H460 = NCI-H460 (Non-Small Cell Lung Cancer)
SN12C = SN12C (Renal Cancer)
COLO 205 = COLO 205 (Colon Cancer)
LOX I MVI = LOX I MVI (Melanoma)
IGROV1 = IGROV1 (Ovarian Cancer)
SK-MEL-2 = SK-MEL-2 (Melanoma)
MDA-MB-231/ATCC = MDA-MB-231/ATCC (Breast Cancer)
DU-145 = DU-145 (Prostate Cancer)
NCI-H226 = NCI-H226 (Non-Small Cell Lung Cancer)
CCRF-CEM = CCRF-CEM (Leukemia)
RPM1-8226 = RPM1-8226 (Leukemia)
SW-620 = SW-620 (Colon Cancer)

Molecule COc1cc(Nc2ncc(F)c(Nc3ccc4c(n3)NC(=O)C(C)(C)O4)n2)cc(OC)c1OC.O=S(=O)(O)c1ccccc1 [Compound 1 (besylate salt), N4-(2,2-Dimethyl-3-oxo-4H-5-pyrid[1,4]oxazin-6-yl)-5-fluoro-N2-(3,4,5-trimethoxyphenyl)-2,4-pyrimidinediamine Benzenesulfonic Acid Salt] has a TGI (NCI-H23) of over 1.00E−4, a CC50 (NCI-H23; read-out: LC50) of over 100 µM and a TGI (SF-295) of over 1.00E−4. It also gave a CC50 (SF-295; read-out: LC50) of over 100 µM, a GI50 (M14) of over 100 µM and a TGI (M14) of over 1.00E−4. The CC50 (M14; read-out: LC50) was over 100 µM, the GI50 (SK-OV-3) was 0.429 µM and the TGI (SK-OV-3) was over 1.00E−4. It also gave a CC50 (SK-OV-3; read-out: LC50) of over 100 µM, a GI50 (HL-60(TB)) of over 100 µM and a TGI (HL-60(TB)) of over 1.00E−4. For the same molecule, the CC50 (HL-60(TB); read-out: LC50) was over 100 µM, the TGI (A549/ATCC) was over 1.00E−4 and the CC50 (A549/ATCC; read-out: LC50) was over 100 µM. It also gave a GI50 (SR) of 3.56 µM, a TGI (SR) of over 1.00E−4 and a CC50 (SR; read-out: LC50) of over 100 µM. It also gave a TGI (TK-10) of over 1.00E−4, a CC50 (TK-10; read-out: LC50) of over 100 µM and a GI50 (MCF7) of 2.72 µM. The TGI (MCF7) was over 1.00E−4, the CC50 (MCF7; read-out: LC50) was over 100 µM and the TGI (T-47D) was over 1.00E−4. For the same molecule, the CC50 (T-47D; read-out: LC50) was over 100 µM, the GI50 (MOLT-4) was 4.82 µM and the TGI (MOLT-4) was over 1.00E−4. It also gave a CC50 (MOLT-4; read-out: LC50) of over 100 µM, a GI50 (UO-31) of 0.596 µM and a TGI (UO-31) of over 1.00E−4. It also gave a CC50 (UO-31; read-out: LC50) of over 100 µM, a GI50 (SF-268) of 1.7 µM and a TGI (SF-268) of over 1.00E−4. For the same molecule, the CC50 (SF-268; read-out: LC50) was over 100 µM, the GI50 (HS 578T) was 1.19 µM and the TGI (HS 578T) was over 1.00E−4. For the same molecule, the CC50 (HS 578T; read-out: LC50) was over 100 µM, the GI50 (KM12) was 0.355 µM and the TGI (KM12) was over 1.00E−4. For the same molecule, the CC50 (KM12; read-out: LC50) was over 100 µM, the TGI (NCI-H460) was over 1.00E−4 and the CC50 (NCI-H460; read-out: LC50) was over 100 µM. The GI50 (SN12C) was 0.698 µM, the TGI (SN12C) was over 1.00E−4 and the CC50 (SN12C; read-out: LC50) was over 100 µM. It also gave a GI50 (COLO 205) of 7.26 µM, a TGI (COLO 205) of over 1.00E−4 and a CC50 (COLO 205; read-out: LC50) of over 100 µM. For the same molecule, the GI50 (LOX I MVI) was 1.13 µM, the TGI (LOX I MVI) was 1.13E−6 and the CC50 (LOX I MVI; read-out: LC50) was over 100 µM. It also gave a GI50 (IGROV1) of 0.796 µM, a TGI (IGROV1) of over 1.00E−4 and a CC50 (IGROV1; read-out: LC50) of over 100 µM. The GI50 (SK-MEL-2) was over 100 µM, the TGI (SK-MEL-2) was over 1.00E−4 and the CC50 (SK-MEL-2; read-out: LC50) was over 100 µM. The TGI (MDA-MB-231/ATCC) was over 1.00E−4, the CC50 (MDA-MB-231/ATCC; read-out: LC50) was over 100 µM and the TGI (DU-145) was over 1.00E−4. For the same molecule, the CC50 (DU-145; read-out: LC50) was over 100 µM, the GI50 (NCI-H226) was 0.497 µM and the CC50 (NCI-H226; read-out: LC50) was over 100 µM. For the same molecule, the TGI (CCRF-CEM) was over 1.00E−4, the CC50 (CCRF-CEM; read-out: LC50) was over 100 µM and the GI50 (RPM1-8226) was over 100 µM. The TGI (RPM1-8226) was over 1.00E−4, the CC50 (RPM1-8226; read-out: LC50) was over 100 µM and the TGI (SW-620) was over 1.00E−4. The CC50 (SW-620; read-out: LC50) was over 100 µM.
